Measured values from EP4534610A1, “FLUOROPHORE COMPOUNDS AND PRODUCTION THEREOF” (Université Fribourg, priority 2023, dated 2025).
Where “and” joins values, the source holds several entries; their conditions need not be identical. Equal entries are not always repeated.

Columns and labels:
[1] = Light-induced E/Z isomerisation and photostationary state (X-ray of Zn complex, NMR, UV-Vis); format: physicochemical; conditions: similar irradiation conditions, NMR and UV-visible experiments
Excerpt: Evidence of the efficient photostationary state of PyPe, was provided by exposing a coordination metal complex of E-PyPe with Zn^2+, [Zn(E-PyPe)2Cl2]·2DCM, comprising two PyPe. X-Ray analysis confirmed that prior to irradiation both PyPe in the complex were primarily in E-configuration when coordinated to the Zn^2+ metal centre.
This experiment provided evidence that the light-induced E/Z-configurational change in PyPe reaches a photostationary equilibrium of E/Z-PyPe.
This was achieved by reacting allyl bromide at 40 °C in Acetonitril (MeCN) as described below to produce PyPeBr.

[2] = system: melanoma OVA-B16 cells line; assay: MTT cytotoxicity assay; format: cell-based
Protocol: To this end, cytotoxicity tests using the MTT assay, a standard colorimetric assay for assessing cell metabolic activity known to the person skilled in the art, on melanoma OVA-B16 cells line were performed. […] Cell growth of OVA-16 cells was unaffected after 1h and 24h of exposure of PyPeBr at this concentration.

HEK/OVA-B16 cells = assay: Staining and fluorescence imaging of living cells; format: cell-based
[3] = Optical properties in different solvents: emission and absorption maxima, lifetime, quantum yield; format: physicochemical; conditions: for λ^em max: Table 2, excitation not given; for Lifetime, τavr.: multiexponential lifetime represented with τavr.; for Φf: quantum yield determined using integrating sphere
Protocol: (§1) ^1H-NMR was recorded on 400 MHz (Brucker DRX 400) and ^13C-NMR spectra were recorded on Bruker 100 MHz spectrometer at room temperature with d6-DMSO as a solvent and tetramethylsilane (TMS) as the internal standard. Mass spectra were performed on the Bruker-ION Trap Ms. Fluorescence spectra were measured on an Edinburgh Instruments FS5 Spectrofluorometer. Absorption spectra were determined on a Perkin Elmer UV/VIS Lambda 2 (190-1100 nm) spectrophotometer. IR spectra were recorded on a Perking Elmer FT-IR spectrometer Frontier 4000-400 cm^-1. Single crystal structures were obtained from a STOE-IPDS II (Single crystal diffractometer λ-Mo), solved and refined using SHELXT software package.

[4] = Photostability: UV-visible spectra of 5µM solutions after continuous irradiation with 400 nm light (Xenon-arc lamp, 300 Watt); format: physicochemical
Protocol: To examine the stability of the absorbance of PyPeBr and PyPe, 5µM solution (2.5 mL) of the respective compounds were prepared using different solvents. The compounds were then irradiated with 400nm using a Xenon-arc lamp at 300 Watt (25 nm FWHM). Following predefined irradiation periods, indicated in Figures 6A to 6H, UV-visible spectra were collected to monitor the stability of PyPeBr and PyPe in different solvents.

[5] = Photoluminescence emission spectra in different solvents; format: physicochemical
Protocol: The photo-physical properties of these dye molecules with stilbene-like motifs were investigated in different solvents in order to determine their maximum absorption and emission wavelengths (Figures 6A to 6C). The compounds were dissolved in Acetonitrile (CH3CN), chloroform (CHCl3), c-hexane (c-HEX), dichloromethane (DCM), dimethylformamide (DMF), methanol (MeOH), tetrahydrofuran (THF), and toluene (Tol).
The highest emission intensity was detected when THF and c-Hex were used as solvents, with lesser intensity recorded for DMF and Tol. PyPe emits light in the blue range, with emission peaks between 380nm and 550nm. Absolute intensities of up to 3.5 x 10^6 were recorded for PyPe in c-Hex.
The photoluminescence spectra of PyPeBr upon excitation at 440nm when dissolved in CH3CN, CHCl3, DCM, DMF, MeOH, or Tol, and upon excitation at 370 nm when dissolved in c-Hex or THF is shown in Figure 4B. PyPeBr has a relatively broad emission spectrum, which depends on the solvent used. The emission spectrum of PyPeBr can be as broad to cover most of the visible range. This broad emission range offers the possibility to select a desired wavelength for imaging by applying appropriate filters.
PyPh emits light in the blue range, ranging from 400nm to 500nm. […] The loss in stability is due to the self-photobleaching reactions, which are induced by irradiation.
as §1

C=CC[n+]1ccc(/C=C/c2ccc3ccc4cccc5ccc2c3c45)cc1.[Br-] [PyPeBr, (E)-1-allyl-4-(2-(pyren-1-yl)vinyl)pyridinium bromide]
rate of E/Z-isomerization [1]: substantially faster than in PyPe
deterioration in cell activity ([2]; 50 µM in cell buffered water or water/buffer/DMSO mixtures): minor or non-visible signs of deterioration in cell activity
cell growth ([2]; 50 µM, after 1h and 24h of exposure): unaffected
solubility in water (Solubility): highly soluble in water
morphological signs of cell toxicity (HEK/OVA-B16 cells; 10µM): cytosol structure changes were observed
morphological signs of cell toxicity (HEK/OVA-B16 cells; 50µM): cells became round and started to detach
staining pattern in cells (HEK/OVA-B16 cells; HEK/OVA-B16 cells): stained the cytoplasm
uptake by living cells (HEK/OVA-B16 cells; dyes applied for up to 1 hour at 10µM): readily taken up
fluorescence emission spectrum in situ, peak (HEK/OVA-B16 cells; in situ, excited at 405 nm): 565 nm
Knr ([3]; solvent CH3CN): 3.15 10^8 s^-1
kr ([3]; solvent CH3CN): 1.05 10^8 s^-1
λ^em max ([3]; solvent CH3CN): 621 nm
Lifetime, τavr. ([3]; solvent CH3CN): 2.38 ns
Φf ([3]; solvent CH3CN): 0.25
Knr ([3]; solvent CHCl3): 0.06 10^8 s^-1
kr ([3]; solvent CHCl3): 6.27 10^8 s^-1
λ^em max ([3]; solvent CHCl3): 609 nm
Lifetime, τavr. ([3]; solvent CHCl3): 1.58 ns
Φf ([3]; solvent CHCl3): 0.99
Knr ([3]; solvent DCM): 1.87 10^8 s^-1
kr ([3]; solvent DCM): 0.36 10^8 s^-1
λ^abs max ([3]; solvent DCM): 492 nm
λ^em max ([3]; solvent DCM): 622 nm
Lifetime, τavr. ([3]; solvent DCM): 4.5 ns
Φf ([3]; solvent DCM): 0.16
Knr ([3]; solvent DMF): 1.79 10^8 s^-1
kr ([3]; solvent DMF): 2.18 10^8 s^-1
Lifetime, τavr. ([3]; solvent DMF): 2.52 ns
Φf ([3]; solvent DMF): 0.55
Knr ([3]; solvent MeOH): 1.33 10^8 s^-1
kr ([3]; solvent MeOH): 3.79 10^8 s^-1
λ^em max ([3]; solvent MeOH): 614 nm
Lifetime, τavr. ([3]; solvent MeOH): 1.95 ns
Φf ([3]; solvent MeOH): 0.74
Knr ([3]; solvent THF): 3.08 10^8 s^-1
kr ([3]; solvent THF): 0.06 10^8 s^-1
λ^abs max ([3]; solvent THF): 447 nm
λ^em max ([3]; solvent THF): 617 nm
Lifetime, τavr. ([3]; solvent THF): 3.18 ns
Φf ([3]; solvent THF): 0.02
Knr ([3]; solvent Toluene): 4.21 10^8 s^-1
kr ([3]; solvent Toluene): 0.04 10^8 s^-1
λ^abs max ([3]; solvent Toluene): 455 nm
λ^em max ([3]; solvent Toluene): 606 nm
Lifetime, τavr. ([3]; solvent Toluene): 2.35 ns
Φf ([3]; solvent Toluene): 0.01
Knr ([3]; solvent c-Hex): 4.69 10^8 s^-1
kr ([3]; solvent c-Hex): 0.10 10^8 s^-1
λ^abs max ([3]; solvent c-Hex): 370 nm
Lifetime, τavr. ([3]; solvent c-Hex): 2.09 ns
Φf ([3]; solvent c-Hex): 0.02
stability of the absorbance under irradiation ([4]; 5µM in MeOH, up to 24h): only a minor decrease in absorbance after 15 minutes of irradiation but no further significant increase over a 24h irradiation period
capacity to absorb light ranging from 370 nm to 500 nm under irradiation ([4]; 5µM in ultra-pure water (MilliQ purification), 24h): remained substantially unchanged over a 24h irradiation period
highest emission intensity ([5]; dissolved in DMF, excitation at 440nm): over 8.5 x 10^6
emission peaks ([5]; very broad emission range, listed as General Formula P1.1): 405 nm and 465 nm and 565 nm
